Test results from PMC8065335, “An integrative drug repositioning framework discovered a potential therapeutic agent targeting COVID-19” (Signal Transduction and Targeted Therapy, 2021).
Read-outs that look alike come from different tables or passages of the source.

How the values were obtained:
SARS-CoV-2 [1] = assay: in vitro anti-SARS-CoV-2 virus infection assay in Vero E6 cells, viral yield in supernatant by qRT-PCR; type: cell-based
[2] = biological target: nucleocapsid (N) protein of SARS-CoV-2 (SARS-CoV-2-N) (Severe acute respiratory syndrome coronavirus 2, UniProt P0DTC9); type: binding; settings: for Kd: read-out: dissociation constant (KD)
IL-6 = assay: LPS-induced IL-6 production in PBMCs (ELISA); type: cell-based, human
Experimental: (§1) Peripheral blood mononuclear cells (Allcells) were cultured at 37 °C at concentration 5% CO2 atmospheric on a 96-well plate in RPMI1640 cell growth medium (Gibico, Cat. 11875-093). For stimulation, PBMC cells were incubated with 1 μg/mL LPS (Sigma, Cat. L2880-25MG). To test whether CVL218 and olaparib can inhibit the production of IL-6, IL-10, IFN-γ, TNF-α, 1 μM and 3 μM concentrations of CVL218 or olaparib were added to cell culture medium for 6 and 24 h, respectively. The concentration of each cytokine was determined by ELISA using a commercial kit (BioLegend, USA).

IL-10 = assay: LPS-induced IL-10 production in PBMCs (ELISA); type: cell-based, human; settings: for LPS-induced expression of IL-10: 3 μM
Experimental: as §1

IFN-γ = assay: LPS-induced IFN-γ production in PBMCs (ELISA); type: cell-based, human; settings: both 3 μM and 1 μM; 6 h and 24 h
Experimental: as §1

TNF-α = assay: LPS-induced TNF-α production in PBMCs (ELISA); type: cell-based, human; settings: both 3 μM and 1 μM; 6 h and 24 h
Experimental: as §1

SARS-CoV-2 [3] = assay: time-of-addition assay (full-time, entry, post-entry) in Vero E6 cells; type: cell-based; settings: Severe acute respiratory syndrome coronavirus 2, Vero C1008, 14 h
[4] = design: method as in https://www.ema.europa.eu/en/medicines/human/EPAR/rubraca; settings: ref https://www.ema.europa.eu/en/medicines/human/EPAR/rubraca; cited from earlier work
SARS-CoV-2 [5] = assay: inhibitor combination assay in Vero E6 cells; type: cell-based
Experimental: The cytotoxicity of the tested drugs on Vero E6 cells was determined by the CCK8 assays (Beyotime, China). At 48 h post addition of the tested drugs, 20 μL CCK8 was added to each well and incubated at 37 °C for 1 h. Then optical density was measured at 450 nm. The 50% cytotoxic concentration (CC50) values were calculated using GraphPad Prism 5 (GraphPad Software, USA). Vero E6 cells were seeded into 96-well plates with a density of 5 × 10^4 cells/well for incubation in DMEM medium supplemented with 10% FBS for 16 h in an incubator with 5% CO2 at 37 °C, for cells to reach 80% confluent. Then, cell culture medium of each well was removed, and PBS was used to wash the cells once, before evaluating the antiviral efficacy of the tested drugs. Four duplicated wells were made for each dose of drugs, and the cells were pretreated with different doses of antiviral drugs diluted by the cell maintenance solution (50 μL per well) for 1 h. For the virus control and cell control wells, cell medium containing DMSO or only medium of 50 μL per well was added. Next, pretreated or untreated cells in each well were infected with the virus with a multiplicity of infection (MOI) of 0.05 for 2 h. […] Then culture supernatant per well was harvested and inactivated at 56 °C for 30 min to further extract and quantify viral RNA. […]

SARS-CoV-2 [6] = assay: indirect immunofluorescence / RT-PCR of virus nucleoprotein expression in infected Vero E6 cells; type: cell-based
[7] = biodistribution (tissue distribution) study in rats; type: in vivo, Sprague-Dawley rats; settings: 20 mg/kg oral, 180 min time point
[8] = four-week toxicity and toxicokinetic study in rats; type: in vivo, Sprague-Dawley rats; settings: for AUC0−24: dose not given
Experimental: Sprague-Dawley rats were purchased from Shanghai Laboratory Animal Center, China. The animals were grouped and housed in wire cages with no more than six per cage, under good laboratory conditions (temperature 25 ± 2 °C; relative humidity 50 ± 20%) and with dark and light cycle (12 h/12 h). Only healthy animals were used for experimental purpose. The pharmacokinetics and biodistribution study in Sprague-Dawley rats was approved by Center for Drug Safety Evaluation and Research, Shanghai Institute of Materia Medica, Chinese Academy of Sciences. A total of 144 Sprague-Dawley rats with each sex were used for toxicity study. Animals were randomly separated into four groups (18/sex/group). CVL218 was administered at doses of 20, 40, 60, and 160 mg/kg. For all the groups, 20 rats (10/sex/group) were randomly selected and euthanized at day 28, and their sections of various tissues and organs were obtained and frozen. Ten (5/sex/group) animals were euthanized after a 28-day drug free period, and their sections of tissues and organs were obtained and frozen. Six (3/sex/group) were euthanized after the blood samples were obtained. For pharmacokinetic and toxicity evaluation, clinical symptoms, mortality and the animals’ body weight were examined. Serum (0.5 mL) was collected to analyze toxicokinetics at different timepoints post drug administration. The plasma concentration-time data were analyzed using a noncompartmental method (Phoenix, version 1.3, USA) to derive the pharmacokinetic parameters.

[9] = 28-day toxicity and toxicokinetic study in cynomolgus monkeys; type: in vivo; settings: for AUC0−24: dose not given
Experimental: Healthy male and female cynomolgus monkeys aged 3–4 years were purchased from Guangdong Landau Biotechnology, China. The animals were maintained in accordance with the Guide for the Care and Use of Laboratory Animals.
Cynomolgus monkey (5/sex/group) were selected using a computerized randomization procedure, and administered CVL218 by nasogastric feeding at dose levels of 0 (control), 5, 20, 80 mg/kg. Individual dose volumes were adjusted weekly based on body weight of monkeys. The monkeys were observed twice daily for viability/mortality and for any change in behavior, reaction to treatment or ill-health. Electrocardiograms, intraocular pressure, rectal temperature and body weight were recorded. For all the groups, […] of the animals were randomly selected and euthanized at day 28. The remaining animals were euthanized after a 28-day drug free period. Blood samples were taken before and at 0.5, 1, 2, 4, 8, and 24 h post-dose on days 1 and 28 of the treatment period. Pharmacokinetic evaluation was performed using a noncompartmental method (Phoenix, version 1.3, USA) and pharmacokinetic parameters were calculated for individual monkeys.

[10] = Phase I clinical trial, ascending dose studies; type: in vivo, human; settings: doses as high as 1000 mg QD and 500 mg BID; preliminary Phase I data
Vero E6 cells = settings: CCK8, 48 h
[11] = design: method as in earlier work; settings: rats, 54 mg/kg oral; cited from earlier work
[12] = Severe acute respiratory syndrome coronavirus 2, Vero C1008, read-out: % Inhibition of SARS-CoV-2 replication
[13] = rats, oral gavage once a day for 28 days
[14] = monkeys, nasogastric, daily for 28 days

O=C(c1cc(Cc2n[nH]c(=O)c3ccccc23)ccc1F)N1CCN(C(=O)C2CC2)CC1 [olaparib, reference compound]
inhibition at 3.2 µM (SARS-CoV-2 [1]; Severe acute respiratory syndrome coronavirus 2, Vero C1008, 3.2 μM, Vero E6, MOI 0.05, qRT-PCR, preliminary test, read-out: % Inhibition of SARS-CoV-2 replication): 15.3%
dissociation constant (KD) ([2]; SPR, immobilized SARS-CoV-2-N): no binding signal
LPS-induced stimulation of IL-6 (IL-6; both 3 μM and 1 μM): no significant inhibition
LPS-induced stimulation of IL-10 (IL-10; both 3 μM and 1 μM): no significant inhibition
LPS-induced concentration of IFN-γ (IFN-γ): no significant inhibition
LPS-induced concentration of TNF-α (TNF-α): no significant inhibition

CC(=O)N[C@H]1[C@H]([C@H](O)[C@H](O)CO)OC(C(=O)O)=C[C@@H]1N=C(N)N [Zanamivir]
inhibition at 3 µM (SARS-CoV-2 [1]; [12]): -10.4%

CCC(CC)COC(=O)[C@H](C)N[P@](=O)(OC[C@H]1O[C@@](C#N)(c2ccc3c(N)ncnn23)[C@H](O)[C@@H]1O)Oc1ccccc1 [remdesivir]
inhibition at 10 µM (SARS-CoV-2 [3]; read-out: % Inhibition, Entry): 5.86%
inhibition at 10 µM (SARS-CoV-2 [3]; read-out: % Inhibition, Full-time): 92.9%
inhibition at 10 µM (SARS-CoV-2 [3]; read-out: % Inhibition, Post-entry): 91.9%

CN(C)CC(=O)Nc1ccc2[nH]c(=O)c3ccccc3c2c1.Cl [PJ-34, N-(6-oxo-5,6-dihydrophenanthridin-2-yl)-N, N-dimethylacetamide. HCl]
fold lower binding affinity than CVL218 [2]: about 22 fold
Kd [2]: 68.1 µM

CCOC(=O)C1=C[C@@H](OC(CC)CC)[C@H](NC(C)=O)[C@@H](N)C1 [Oseltamivir]
inhibition at 3 µM (SARS-CoV-2 [1]; [12]): -13.7%

CNCc1ccc(-c2[nH]c3cc(F)cc4c3c2CCNC4=O)cc1 [rucaparib]
accessibility in the lung tissue [4]: poor accessibility

NC(=O)c1nc(F)c[nH]c1=O [favipiravir, reference compound]
inhibition rate against SARS-CoV-2 replication (SARS-CoV-2 [5]; favipiravir alone at 30 μM): no inhibitory activity

CNCc1ccc(-c2cc3cc(F)cc(C(N)=O)c3o2)cc1 [CVL218]
% Inhibition of SARS-CoV-2 replication (SARS-CoV-2 [1]; 3 μM, Vero E6, MOI 0.05, qRT-PCR, preliminary test): 34.64%
EC50 (SARS-CoV-2 [1]; Vero E6, MOI 0.05, 48 h, read-out: EC50 against SARS-CoV-2 replication): 5.19 µM
inhibition rate against SARS-CoV-2 replication (SARS-CoV-2 [5]; CVL218 alone at 3.5 μM): 36%
Kd ([2]; SPR, immobilized SARS-CoV-2-N): 3.1 µM
LPS-induced production of IL-6 (IL-6; 3 μM, after both 6 h and 24 h incubation, p < 0.01): significantly repressed
LPS-induced expression of IL-10 (IL-10; after 6 h): not downregulated
LPS-induced expression of IL-10 (IL-10; after 24 h, p < 0.001): dramatically reduced
LPS-induced concentration of IFN-γ (IFN-γ): significant decrease
LPS-induced concentration of TNF-α (TNF-α): significant decrease
cytopathic effect in the infected cells (SARS-CoV-2 [6]; 25 μM): no obvious cytopathic effect
expression level of N gene compared to DMSO (SARS-CoV-2 [6]; RT-PCR, 5, 15, 25 μM, 48 h post infection): Lower expression level
virus nucleoprotein (NP) expression compared to DMSO treated cells (SARS-CoV-2 [6]; immunofluorescence microscopy, 5, 15, 25 μM, dose-response): significantly lower
lung concentration compared to that in plasma [7]: 188 fold
AUC0−24 ([8]; female rats, day 1): 7605 ng·h/mL
AUC0−24 ([8]; female rats, day 28): 6657 ng·h/mL
AUC0−24 ([8]; male rats, day 1): 9102 ng·h/mL
AUC0−24 ([8]; male rats, day 28): 10253 ng·h/mL
body weight versus control groups ([8]; rats, 20/60/160 mg/kg oral, 28 days + 28 days recovery): no significant difference
maximum tolerable dose (MTD) [8, 13]: 160 mg/kg
no-observed adverse effect level (NOAEL) [8, 13]: 20 mg/kg
signs of toxicity after 28-day treatment period ([8]; rats, repeated dose): no apparent sign of toxicity
AUC0−24 ([9]; female monkeys, day 1): 19466 ng·h/mL
AUC0−24 ([9]; female monkeys, day 28): 18774 ng·h/mL
AUC0−24 ([9]; male monkeys, day 1): 16924 ng·h/mL
AUC0−24 ([9]; male monkeys, day 28): 22912 ng·h/mL
accumulation after consecutive 28 days of drug administration ([9]; monkeys, 5, 20 or 80 mg/kg): not apparent
increase of exposure (AUC0−24) with dose ([9]; monkeys, 5, 20 or 80 mg/kg): approximately dose proportional
body weight ([9]; monkeys, high-dose (80 mg/kg) group, reversed after 28-day recovery): slight decrease
maximum tolerable dose (MTD) [9, 14]: 80 mg/kg
no-observed adverse effect level (NOAEL) [9, 14]: 5 mg/kg
adverse events in human [10]: no Grade II and above adverse events
tolerability in human [10]: well tolerated
CC50 (Vero E6 cells): 90.6 µM

CCOC(=O)c1c(CSc2ccccc2)n(C)c2cc(Br)c(O)c(CN(C)C)c12 [arbidol]
inhibition at 30 µM (SARS-CoV-2 [1]; [12]): 99%
inhibition at 3 µM (SARS-CoV-2 [1]; Severe acute respiratory syndrome coronavirus 2, Vero C1008, 3 μM, Vero E6, MOI 0.05, qRT-PCR, preliminary test, read-out: % Inhibition of SARS-CoV-2 replication): 21.8%
tissue distribution post administration [11]: mostly distributed in stomach and plasma
